Measurements taken from patent US20250092016A1, “COMPOUNDS AND COMPOSITIONS FOR THE TREATMENT OF CORONAVIRAL RELATED DISEASES” (priority 2021, published 2025).

These molecules were tested against SARS-CoV-2 main protease (M^pro) (Severe acute respiratory syndrome coronavirus 2, UniProt P0DTD1) (assay: Rapid-Fire MS Biochemical Assay measuring Mpro activity (5 nM Mpro)). Conditions: Table 1B, Mpro inhibition, 5 μM substrate peptide, 120 min, read-out: Rapid-Fire Assay IC50.
In the case of `Cc1ccc(C(F)(F)F)cc1N1C[C@H](C#N)N(c2cncc3ccccc23)C1=O` (single isomer, unassigned) [Compound 24a], the IC50 is reported as < 20 nM. `N#C[C@@H]1CN(c2cncc(C(F)(F)F)c2)C(=O)N1c1cncc2ccccc12` (single isomer, unassigned) [Compound 104b] was tested, and the IC50 was > 1000 nM. With `CC(C)n1cc(N2C[C@@H](C#N)N(c3cncc4ccccc34)C2=O)cn1` (single isomer, unassigned) [Compound 64b] the IC50 was > 1000 nM. `N#C[C@@H]1CN([C@H]2CC[C@H](F)CC2)C(=O)N1c1cncc2ccccc12` [Compound 121c, (S)-1-((1 r,4S)-4-fluorocyclohexyl)-3-(isoquinolin-4-yl)-2-oxoimidazolidine-4-carbonitrile] was tested, and the IC50 was > 1000 nM. Work on `N#Cc1cccc(N2C[C@@H](C#N)N(c3cncc4ccccc34)C2=O)c1` (single isomer, unassigned) [Compound 52b] yielded an IC50 of 200 to 1000 nM. In the case of `N#C[C@H]1CN(C2CC3(CCC3)C2)C(=O)N1c1cncc2ccccc12` (single isomer, unassigned) [Compound 122a], the IC50 is reported as < 20 nM. In the case of `CS(=O)(=O)c1ccc2cncc(N3C(=O)N(c4cc(F)cc(F)c4)C[C@H]3C#N)c2c1` (single isomer, unassigned) [Compound 86b], the IC50 is reported as > 1000 nM. In the case of `N#CC1CN(C2CCC(F)CC2)C(=O)N1c1cncc2ccccc12` (single isomer, unassigned) [Compound 121a], the IC50 is reported as < 20 nM. `N#C[C@H]1CN(c2ccc(Cl)cn2)C(=O)N1c1cncc2ccccc12` (single isomer, unassigned) [Compound 41a] was tested, and the IC50 was < 20 nM. With `N#C[C@H]1CN(c2cccc(OC(F)F)c2)C(=O)N1c1cncc2ccccc12` (single isomer, unassigned) [Compound 89a] the IC50 was < 20 nM. `Cc1cnc(C(F)(F)F)nc1N1C[C@H](C#N)N(c2cncc3ccccc23)C1=O` (single isomer, unassigned) [Compound 62a] was tested, and the IC50 was 200 to 1000 nM. In the case of `N#C[C@@H]1CN(c2ccc(OC(F)(F)F)cc2)C(=O)N1c1cncc2ccccc12` (single isomer, unassigned) [Compound 91b], the IC50 is reported as > 1000 nM. For `COc1nc(C(F)(F)F)ccc1N1C[C@H](C#N)N(c2cncc3ccccc23)C1=O` (single isomer, unassigned) [Compound 95a], the IC50 was < 20 nM. With `N#C[C@@H]1CN(c2ccc(F)c(Cl)c2)C(=O)N1c1cncc2ccccc12` (single isomer, unassigned) [Compound 87b] the IC50 was > 1000 nM. `CC(=O)N1CC(N2C[C@@H](C#N)N(c3cncc4ccccc34)C2=O)C1` (single isomer, unassigned) [Compound 134b] was tested, and the IC50 was > 1000 nM. `COc1ccc(F)cc1N1C[C@H](C#N)N(c2cncc3ccccc23)C1=O` (single isomer, unassigned) [Compound 105a] was tested, and the IC50 was < 20 nM. `COc1ccc(F)cc1N1C[C@@H](C#N)N(c2cncc3ccccc23)C1=O` (single isomer, unassigned) [Compound 105b] was tested, and the IC50 was > 1000 nM. For `N#C[C@@H]1CN(C2CC3(CC3)C2)C(=O)N1c1cncc2ccccc12` (single isomer, unassigned) [Compound 125b], the IC50 was > 1000 nM. For `N#C[C@@H]1CN(C2CC3(CCC3)C2)C(=O)N1c1cncc2ccccc12` (single isomer, unassigned) [Compound 122b], the IC50 was > 1000 nM. In the case of `CC(C)n1cc(N2CC(C#N)N(c3cncc4ccccc34)C2=O)cn1` (racemic) [Compound 64, 1-(1-isopropyl-1H-pyrazol-4-yl)-3-(isoquinolin-4-yl)-2-oxoimidazolidine-4-carbonitrile], the IC50 is reported as 20 to 200 nM. `N#C[C@@H]1CN(c2ccc(F)c(F)c2)C(=O)N1c1cncc2ccccc12` (single isomer, unassigned) [Compound 72b] gave an IC50 of 200 to 1000 nM. `Cc1cc(Cl)cnc1N1CC(C#N)N(c2cncc3ccccc23)C1=O` (racemic) [Compound 80, 1-(5-chloro-3-methylpyridin-2-yl)-3-(isoquinolin-4-yl)-2-oxoimidazolidine-4-carbonitrile] showed an IC50 of 20 to 200 nM. For `N#CC1CN(c2cccc(Cl)c2)C(=O)N1c1cncc2ccc(C(=O)O)cc12` (racemic) [Compound 33, 4-(3-(3-chlorophenyl)-5-cyano-2-oxoimidazolidin-1-yl)isoquinoline-6-carboxylic acid], the IC50 was < 20 nM. In the case of `N#Cc1ccc2cncc(N3C(=O)N(c4cccc(Cl)c4)C[C@@H]3C#N)c2c1` (single isomer, unassigned) [Compound 39a], the IC50 is reported as < 20 nM. `N#C[C@@H]1CN(c2ncc(C(F)(F)F)[nH]2)C(=O)N1c1cncc2ccccc12` (single isomer, unassigned) [Compound 68b] was tested, and the IC50 was > 1000 nM. With `N#CC1CN([C@H]2CC[C@H](C(F)(F)F)CC2)C(=O)N1c1cncc2ccccc12` (stereo partly shown) [Compound 128, 3-(isoquinolin-4-yl)-2-oxo-1-((1 r,4r)-4-(trifluoromethyl)cyclohexyl)imidazolidine-4-carbonitrile] the IC50 was < 20 nM. `N#C[C@H]1CN(c2ccc(C(F)(F)F)cn2)C(=O)N1c1cncc2ccccc12` (single isomer, unassigned) [Compound 97a] was tested, and the IC50 was < 20 nM. For `N#C[C@H]1CN(c2ccc(C(F)(F)F)nn2)C(=O)N1c1cncc2ccccc12` (single isomer, unassigned) [Compound 81a], the IC50 was < 20 nM. `Cc1ccc(C(F)(F)F)nc1N1C[C@@H](C#N)N(c2cncc3ccccc23)C1=O` (single isomer, unassigned) [Compound 82b] was tested, and the IC50 was > 1000 nM. In the case of `N#C[C@H]1CN(c2ccc(C(F)F)cn2)C(=O)N1c1cncc2ccccc12` (single isomer, unassigned) [Compound 78a], the IC50 is reported as < 20 nM. `N#C[C@@H]1CN(c2cc(C(F)(F)F)cnn2)C(=O)N1c1cncc2ccccc12` (single isomer, unassigned) [Compound 30b] was tested, and the IC50 was > 1000 nM. In the case of `N#C[C@@H]1CN(c2ccc(C(F)(F)F)cc2)C(=O)N1c1cncc2ccccc12` (single isomer, unassigned) [Compound 99b], the IC50 is reported as 200 to 1000 nM. Work on `N#C[C@@H]1CN(c2cc(Cl)cnn2)C(=O)N1c1cncc2ccccc12` (single isomer, unassigned) [Compound 54b] yielded an IC50 of 200 to 1000 nM. With `N#C[C@@H]1CN(c2cccc3cn[nH]c23)C(=O)N1c1cncc2ccccc12` (single isomer, unassigned) [Compound 63b] the IC50 was > 1000 nM. Molecule `N#C[C@H]1CN([C@@H]2CCN(C(=O)CO)C2)C(=O)N1c1cncc2ccccc12` (single isomer, unassigned) [Compound 25a] has an IC50 of 200 to 1000 nM. With `N#C[C@@H]1CN(c2cnc(C(F)(F)F)c(F)c2)C(=O)N1c1cncc2ccccc12` (single isomer, unassigned) [Compound 77b] the IC50 was 20 to 200 nM. For `COc1ccc(C(F)(F)F)cc1N1C[C@@H](C#N)N(c2cncc3ccccc23)C1=O` (single isomer, unassigned) [Compound 17b], the IC50 was > 1000 nM. `N#C[C@H]1CN(c2cccc(C(F)(F)F)n2)C(=O)N1c1cncc2ccccc12` (single isomer, unassigned) [Compound 51a] was tested, and the IC50 was 20 to 200 nM. Work on `Cc1c[nH]c(N2CC(C#N)N(c3cncc4ccccc34)C2=O)n1` (racemic) [Compound 118, 3-(isoquinolin-4-yl)-1-(4-methyl-1 H-imidazol-2-yl)-2-oxoimidazolidine-4-carbonitrile] yielded an IC50 of 200 to 1000 nM. In the case of `COc1cc(C(F)(F)F)ncc1N1C[C@@H](C#N)N(c2cncc3ccccc23)C1=O` (single isomer, unassigned) [Compound 107b], the IC50 is reported as > 1000 nM. `COc1cc(Cl)ccc1N1CC(C#N)N(c2cncc3ccccc23)C1=O` (racemic) [Compound 103, 1-(4-chloro-2-methoxyphenyl)-3-(isoquinolin-4-yl)-2-oxoimidazolidine-4-carbonitrile] gave an IC50 of 20 to 200 nM. Work on `N#C[C@H]1CN(C2CCC(F)(F)C2)C(=O)N1c1cncc2ccccc12` (single isomer, unassigned) [Compound 141a, (R)-1-((S)-3,3-difluorocyclopentyl)-3-(isoquinolin-4-yl)-2-oxoimidazolidine-4-carbonitrile or (R)-1-((R)-3,3-difluorocyclopentyl)-3-(isoquinolin-4-yl)-2-oxoimidazolidine-4-carbonitrile] yielded an IC50 of 20 to 200 nM. For `N#C[C@H]1CN(c2cnnc(C(F)(F)F)c2)C(=O)N1c1cncc2ccccc12` (single isomer, unassigned) [Compound 13a], the IC50 was < 20 nM. In the case of `Cc1cc(Cl)cnc1N1C[C@H](C#N)N(c2cncc3ccccc23)C1=O` (single isomer, unassigned) [Compound 80a], the IC50 is reported as 20 to 200 nM. For `Cn1cc(N2C[C@@H](C#N)N(c3cncc4ccccc34)C2=O)cn1` (single isomer, unassigned) [Compound 65b], the IC50 was > 1000 nM. With `N#C[C@@H]1CN(c2nc(Cl)c[nH]2)C(=O)N1c1cncc2ccccc12` (single isomer, unassigned) [Compound 119b] the IC50 was > 1000 nM. In the case of `N#C[C@@H]1CN(c2nccc(C(F)(F)F)n2)C(=O)N1c1cncc2ccccc12` (single isomer, unassigned) [Compound 49b], the IC50 is reported as > 1000 nM. With `N#C[C@@H]1CN(c2cc(F)ccc2F)C(=O)N1c1cncc2ccccc12` (single isomer, unassigned) [Compound 109b] the IC50 was > 1000 nM. With `COc1cc(C#N)ccc1N1C[C@H](C#N)N(c2cncc3ccccc23)C1=O` (single isomer, unassigned) [Compound 19a] the IC50 was < 20 nM. With `N#C[C@@H]1CN([C@H]2C[C@@H](C3CC3)C2)C(=O)N1c1cncc2ccccc12` [Compound 124d, (S)-1-((1s,3R)-3-cyclopropylcyclobutyl)-3-(isoquinolin-4-yl)-2-oxoimidazolidine-4-carbonitrile] the IC50 was > 1000 nM. `N#C[C@@H]1CN(c2cccc(Cl)c2)C(=O)N1c1cncc2ccc(C(=O)O)cc12` (single isomer, unassigned) [Compound 33b] was tested, and the IC50 was > 1000 nM. With `C[C@H]1[C@H](C#N)N(c2cncc3ccccc23)C(=O)N1c1cccc(Cl)c1` (single isomer, unassigned) [Compound 43a] the IC50 was < 20 nM. `N#C[C@@H]1CN(C2CCC(F)(F)CC2)C(=O)N1c1cncc2ccccc12` (single isomer, unassigned) [Compound 138b] was tested, and the IC50 was > 1000 nM. In the case of `COc1cc(N2C[C@@H](C#N)N(c3cncc4ccccc34)C2=O)ccn1` (single isomer, unassigned) [Compound 23b], the IC50 is reported as > 1000 nM. With `CC(C)n1cc(N2C[C@H](C#N)N(c3cncc4ccccc34)C2=O)cn1` (single isomer, unassigned) [Compound 64a] the IC50 was < 20 nM.
